The source of these data is paper PMC8156206, “Novel N,N′-Disubstituted Selenoureas as Potential Antioxidant and Cytotoxic Agents” (Antioxidants, 2021).

Molecules are shown by their SMILES.

Data set [1] deals with MCF-7 cells (breast adenocarcinoma). The data set can be described thus: MTT cell viability assay, MCF-7. It counts as cell-based, human. Conditions: Homo sapiens, MCF7, 48 h, MTT; for IC50: mean ± SD, read-out: IC50 MCF-7 (breast); for viability at 10 µM: MCF-7, 10 µM; for viability at 10 µM / viability at 50 µM: read-out: cell viability, percentage of live cells; for viability at 50 µM: MCF-7, 50 µM. Here is the method: (§1) Cell lines were purchased from the American Type Culture Collection (ATCC). MCF-7, HTB-54, BEAS-2B and 184B5 cell lines were grown in RPMI 1640 medium (Gibco) supplemented with 10% fetal bovine serum (FBS; Gibco), 100 units/mL penicillin, and […] streptomycin (Gibco). HT-29 and HCT-116 cell lines was cultured in McCoy’s 5A (Gibco), 10% FBS, 100 units/mL penicillin, and 100 μg/mL streptomycin. Cells were maintained at 37 °C and 5% CO2. Culture medium was replaced every three days.
(§2) A cell viability assay of each compound was carried out using an MTT assay. Each selenourea was dissolved in dimethyl sulfoxide (DMSO) at a concentration of 0.01 M. Serial dilutions were prepared with non-supplemented culture medium. Cytotoxic activity of each selenourea was determined at two different concentrations (10 and 50 µM) in MCF-7, HTB-54, and HT-29 cells. In addition, selected compounds were tested at seven different concentrations (0.1, 1, 5, 10, 25, 50, 100 µM) on MCF-7, HT-29, HCT-116, HTB-54, 184B5, and BEAS-2B cells. The number of passages before defrosting the cells was 3, and they were kept under culture up to a maximum of 15.
(§3) Briefly, 1 × 10^4 cells/well were grown in 96-well plates for 24 h. Then, these cells were incubated with either DMSO (negative control) at 5 µM or a different concentration of each tested selenourea for 48 h. A volume of 20 µL of MTT was added 150 min before the termination point to measure cellular viability. After this time, culture medium was removed. The resultant formazan crystals were dissolved in 50 µL of DMSO, and absorbance was measured at 570 nm. Results are expressed as IC50, the half maximal inhibitory concentration. This value was calculated using GraphPad Prism 7 software by nonlinear curve fitting. Furthermore, the selectivity index (SI) was calculated as the ratio of the IC50 values determined for the non-malignant and the tumoral cells (IC50 (184B5)/IC50 (MCF-7) or (IC50 (BEAS-2B)/IC50 (HTB-54). Data were obtained from at least three independent experiments performed in triplicates.
(§4) The cytotoxic effects of synthesized compounds were evaluated against three human cancer cell lines: breast adenocarcinoma (MCF-7), lung adenocarcinoma (HTB-54), and colon carcinoma (HT-29), using a 3-[4,5-dimethylthiazol-2-yl]-2,5-diphenyltetrazolium bromide (MTT) assay. Firstly, the compounds were screened at two doses (50 and 10 µM) and after 48 h of treatment. The results are summarized in Figure 4 and are presented as percentages of growth inhibition related to control.

Data set [2] concerns HTB-54 cells (lung adenocarcinoma). Put plainly: MTT cell viability assay, HTB-54. It counts as cell-based, human. To be noted: Homo sapiens, 48 h, MTT; for IC50: HTB-54, mean ± SD, read-out: IC50 HTB-54 (lung); for viability at 10 µM: HTB-54, 10 µM; for viability at 10 µM / viability at 50 µM: read-out: cell viability, percentage of live cells; for viability at 50 µM: HTB-54, 50 µM. The method, then: as §1, §2, §3, §4
A general note: Formazan colour is commonly taken as a measure of viable cells.

For data set [3], the system named is HT-29 cells (colon carcinoma). Put plainly: MTT cell viability assay, HT-29. It counts as cell-based. To be noted: Homo sapiens, 48 h, MTT; for IC50: HT-29, mean ± SD, read-out: IC50 HT-29 (colon); for viability at 10 µM: HT-29, 10 µM; for viability at 10 µM / viability at 50 µM: read-out: cell viability, percentage of live cells; for viability at 50 µM: HT-29, 50 µM. Here is the method: as §1, §2, §3, §4

The subject of data set [4] is HCT-116 cells (colon). Put plainly: MTT cell viability assay, HCT-116. Conditions: Homo sapiens, HCT-116; 48 h, MTT, mean ± SD; read-out: IC50 HCT-116 (colon). It counts as cell-based. Here is the method:
as §1, §2, §3

Data set [5] in a line: DPPH radical scavenging assay. To be noted: for DPPH radical scavenging kinetics: 0.03 mg/mL, time-point 0 min. The method, then: (§5) From all the methods available for the prediction of the antioxidant properties, DPPH^● and ABTS^●+ assays were chosen according to their simplicity, accessibility, and effectiveness for a fast prediction of radical scavenging activities in vitro. The radical scavenging capacity of the novel selenoureas was determined by DPPH^● and ABTS^●^+ assays. Measurements were recorded on a BioTeck PowerWave XS spectrophotometer (BioTeck Instruments, Winooski (VT), USA) and the data were collected using KCJunior software (BioTeck Instruments, Winooski (VT), USA).
A DPPH assay was performed, as described by Svinyarov. Stock solutions of 1 mg/mL were initially prepared for each selenourea in methanol and this solution was used for the preparation of the different concentrations employed in the assay. Ascorbic acid (Asc) was used as positive control due to the literature reports that this derivative is a potent antioxidant and radical scavenger. A volume of 100 µL from a previously prepared stock solution (preserved in dark and daily prepared) of DPPH (100 µM) in methanol were added to 100 µL of the methanolic selenoureas solutions prepared previously, and the antioxidant activity these compounds was assessed by its ability to decolorize DPPH● radical (purple color in methanol) to DPPHH (colorless). Thus, radical scavenging activity was estimated by the decrease in the absorbance at 517 nm. Determinations were recorded at different time-points. All the measurements were carried out in triplicate. Results are expressed as the percentage of the radicals scavenged, calculated using the following formula:(1) % DPPH radical scavenging=Acontrol − Asample/Acontrol × 100 where Acontrol refers to the absorbance of the negative control and Asample refers to the absorbance of the tested compounds. Results are expressed as percentage of DPPH radical scavenging ± SD.
In order to determine the radical scavenging of these newly synthesized selenourea derivatives, the DPPH assay was firstly employed. Measurements were performed at four different concentrations ranging from 0.0003 to 0.03 mg/mL, and collected at time-points between 0 min and 120 min (Figures S81–S100). Results are presented as the percentage of inhibition for DPPH radical scavenging activity.

Data set [6] in a line: ABTS radical scavenging assay. Conditions: 0.003 mg/mL, 60 min. The method, then:
as §5
As well as DPPH, ABTS radical scavenging assay is a colorimetric method. ABTS (2,2′-azino-bis(3-ethylbenzothiazoline-6-sulfonic acid) was dissolved in deionized water at 1 mg/mL and oxidized to ABTS^●+ with potassium persulfate (2.45 mM final concentration). This oxidation process is not instantaneous, and the reaction mixture was kept in the dark overnight at room temperature. After ABTS^●+ radical was generated, the ABTS^●+ solution was diluted with 50% ethanol until an absorbance of 0.70 ± 0.02 at 734 nm for measurements was achieved. Stock solution of 1 mg/mL in absolute ethanol was prepared for each selenourea, and different dilutions were prepared to reach the final concentration, when 20 µL of this solution were added to 180 µL of the diluted ABTS^●+. The absorbance at 734 nm was recorded using 50% ethanol as blank. Trolox and Asc were used as positive controls. All determinations were carried out in triplicate. Same time intervals as in the DPPH assay were also measured. The ability to scavenge ABTS^●+ was calculated using the following formula:(2) % ABTS radical scavenging=Acontrol − Asample/Acontrol × 100 where Acontrol refers to the absorbance of the negative control and Asample refers to the absorbance of the tested compounds. The results are expressed as percentage of ABTS radical scavenging ± SD.
In order to confirm the antioxidant activity of the selenoureas, we performed an additional ABTS (2,2′-azino-bis(3-ethylbenzothiazoline-6-sulfonic acid) radical scavenging assay. Following the results obtained in the DPPH assay, this experiment was performed at 0.03 and 0.003 mg/mL. Measurements were recorded after 0′, 6′ and 60′ of incubation with ABTS. For comparison purposes, Trolox and ascorbic acid were used as references. The remarkable results are summarized in Figure 3.

`Clc1ccc(NC(=[Se])NCc2ccco2)cc1` [Compound 1d]: the melting point (usually the temperature of the solid-liquid transition) came out at 128 °C. In data set [1], the IC50 (as a rule, the midpoint of a concentration-inhibition curve) was greater than 10 µM; the viability (in general, a per cent measure of how many cells are alive, often set against a control) at 10 µM worked out at 78.2%; the viability at 50 µM was 27.9%. In data set [2], the half-inhibitory concentration (IC50) is greater than 10 µM, the viability at 10 µM worked out at 52.2% and the viability at 50 µM came to 27.3%. Further, in data set [3], the IC50 stood at 8.07 ± 3.77 µM, the viability at 10 µM is 48.6% and the viability at 50 µM was 35%. Further, the IC50 in data set [4] is 7.8 ± 0.56 µM.
Regarding `COc1ccc(NC(=[Se])NCc2nccs2)cc1` [Compound 2c], the melting point turned out to be 150 °C. Besides, in data set [5] (at lower concentrations), the “DPPH radical scavenging capacity compared with ascorbic acid” value was “greater radical scavenging capacity than ascorbic acid”. In data set [6], the “ABTS radical scavenging activity” value is listed as “above 90%”. Besides, in data set [1], the viability at 10 µM is 60% and the viability at 50 µM is 33.1%. For the same compound, in data set [2], the viability at 10 µM worked out at 58.5% and the viability at 50 µM was found to be 30.3%. In addition, in data set [3], the viability at 10 µM was found to be 88.9% and the viability at 50 µM stood at 53.1%.
On to `N#Cc1ccc(NC(=[Se])NCc2nccs2)cc1` [Compound 2e], for which the melting point was 152 °C. Also, in data set [5], the “DPPH radical scavenging kinetics” value was “reaching the maximum activity at time-point 0′”. Besides, in data set [6], the “ABTS radical scavenging activity” value is on record as “above 90%”. In data set [1], the viability at 10 µM is 62.3% and the viability at 50 µM stood at 43.6%. Further, in data set [2], the viability at 10 µM came to 66.6% and the viability at 50 µM is 40.1%. Moreover, in data set [3], the viability at 10 µM amounted to 57.9% and the viability at 50 µM was 59.2%.
For the compound `O=c1ccc2cc(NC(=[Se])Nc3ccccc3)ccc2o1` [Compound 3a], the melting point amounted to 169 °C. Besides, the “DPPH radical scavenging kinetics” value in data set [5] was “reaching the maximum activity at time-point 0′”. For the same compound, in data set [1], the concentration for half-maximal inhibition (IC50) was greater than 10 µM, the viability at 10 µM turned out to be 53.5% and the viability at 50 µM worked out at 29.8%. Moreover, in data set [2], the IC50 was greater than 10 µM, the viability at 10 µM was found to be 66% and the viability at 50 µM was found to be 10.3%. In data set [3], the IC50 turned out to be 6.49 ± 1.58 µM, the viability at 10 µM is 47.5% and the viability at 50 µM turned out to be 30.2%. Besides, the IC50 in data set [4] is 5.86 ± 0.52 µM.
`N#Cc1ccc(NC(=[Se])Nc2ccc3oc(=O)ccc3c2)cc1` [Compound 3e] gave a melting point of 140 °C. Besides, the “DPPH radical scavenging kinetics” value in data set [5] is on record as “reaching the maximum activity at time-point 0′”. Moreover, in data set [6], the “ABTS radical scavenging activity compared with Trolox” value is “significant lower radical scavenging activity than Trolox”. Besides, in data set [1], the viability at 10 µM was found to be 59.7% and the viability at 50 µM stood at 31.1%. In addition, in data set [2], the viability at 10 µM worked out at 60.8% and the viability at 50 µM was determined as 17.8%. In addition, in data set [3], the viability at 10 µM is 66.6% and the viability at 50 µM worked out at 32.2%.
Take `CCCCCCNC(=[Se])Nc1ccc(Cl)cc1` [Compound 5d]: the melting point came to 110 °C. Moreover, the “ABTS radical scavenging activity compared with Trolox” value in data set [6] is given as “significant lower radical scavenging activity than Trolox”. Also, in data set [1], the viability at 10 µM was determined as 81.3% and the viability at 50 µM was determined as 17.3%. In data set [2], the viability at 10 µM is 81.4% and the viability at 50 µM was 57.2%. In data set [3], the viability at 10 µM was 69.1% and the viability at 50 µM came to 42.5%.
